Laboratory results from ChEMBL document CHEMBL1151074, “RATIONAL DESIGN, SYNTHESIS, AND SERINE PROTEASE INHIBITORY ACTIVITY OF NOVEL P1-ARGININOYL HETEROCYCLES” (Bioorg Med Chem Lett, 1997).
pIC50: −log10 of the molar value.

Key:
[1] = Inhibitory concentration against factor Xa(FXa).
Serine protease 1 = Serine protease 1 (Homo sapiens, UniProt P07477); assay: Inhibitory concentration against trypsin.
Prothrombin = Prothrombin (Homo sapiens, UniProt P00734); assay: Inhibitory concentration against thrombin(FIIa).
Plasminogen = Plasminogen (Rattus norvegicus, UniProt Q01177); assay: Inhibitory concentration against plasmin.
Sequence of Plasminogen (Q01177 97-581 limits assumed): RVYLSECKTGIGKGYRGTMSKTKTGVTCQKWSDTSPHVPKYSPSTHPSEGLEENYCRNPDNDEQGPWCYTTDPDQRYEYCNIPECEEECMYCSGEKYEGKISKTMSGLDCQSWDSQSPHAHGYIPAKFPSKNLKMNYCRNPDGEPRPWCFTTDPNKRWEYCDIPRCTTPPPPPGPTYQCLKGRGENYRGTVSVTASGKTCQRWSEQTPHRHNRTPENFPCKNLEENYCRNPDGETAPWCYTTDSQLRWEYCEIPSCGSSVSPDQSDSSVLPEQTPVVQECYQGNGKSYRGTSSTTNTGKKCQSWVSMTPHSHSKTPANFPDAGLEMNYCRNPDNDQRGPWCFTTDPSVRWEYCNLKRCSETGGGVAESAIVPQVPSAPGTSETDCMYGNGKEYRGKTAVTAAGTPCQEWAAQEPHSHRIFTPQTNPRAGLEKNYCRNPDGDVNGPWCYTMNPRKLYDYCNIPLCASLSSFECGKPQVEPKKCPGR
Sequence of Plasminogen (Q01177 582-812 limits assumed): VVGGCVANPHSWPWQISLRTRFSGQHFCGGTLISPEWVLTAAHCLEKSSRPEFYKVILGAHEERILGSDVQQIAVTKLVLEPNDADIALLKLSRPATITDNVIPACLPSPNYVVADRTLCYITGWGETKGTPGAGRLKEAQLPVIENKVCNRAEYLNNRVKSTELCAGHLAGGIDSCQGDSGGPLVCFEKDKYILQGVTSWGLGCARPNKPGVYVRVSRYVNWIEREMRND

Sequence of Serine protease 1 (P07477 whole entry): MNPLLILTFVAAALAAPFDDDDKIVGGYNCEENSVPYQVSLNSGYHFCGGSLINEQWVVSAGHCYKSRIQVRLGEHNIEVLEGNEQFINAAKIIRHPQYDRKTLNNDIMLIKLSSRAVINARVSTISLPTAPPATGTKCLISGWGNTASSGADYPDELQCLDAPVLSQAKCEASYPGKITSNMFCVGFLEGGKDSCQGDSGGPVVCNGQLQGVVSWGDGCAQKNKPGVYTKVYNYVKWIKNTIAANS

Row | pIC50 [1] | pIC50 (Serine protease 1) | pIC50 (Prothrombin) | pIC50 (Plasminogen) | SMILES
1 | < 5.60 | 6.00 | 7.04 | < 5.60 | CC(C)(C)CC(=O)N[C@H](Cc1ccccc1)C(=O)N1CCC[C@H]1C(=O)N[C@@H](CCCN=C(N)N)C(=O)c1nc2ccccc2[nH]1
2 | 7.54 | 8.19 | < 5.60 | 7.85 | CC(=O)N[C@H](Cc1ccccc1)C(=O)N[C@@H](Cc1cccc2ccccc12)C(=O)N[C@@H](CCCN=C(N)N)C(=O)c1nc2ccccc2o1
3 | 6.96 | 8.64 | 7.17 | 5.88 | CC(C)(C)CC(=O)N[C@H](Cc1ccccc1)C(=O)N1CCC[C@H]1C(=O)N[C@@H](CCCNC(=N)N)C(=O)c1nc2ccccc2o1
4 | < 5.60 | 6.81 | 6.55 | < 5.60 | CC(=O)N[C@H](Cc1ccccc1)C(=O)N1CCC[C@H]1C(=O)N[C@H]1CCCN(C(=N)N)C1O (some centres undefined)
5 | – | 7.60 | < 5.60 | > 7.60 | CC(=O)N[C@H](Cc1ccccc1)C(=O)N[C@@H](Cc1cccc2ccccc12)C(=O)N[C@H]1CCCN(C(=N)N)C1O (some centres undefined)
